Test results taken from PubChem BioAssay AID330 (DTP/NCI, 2004).
Toxic doses and inconclusive results are not listed. Rule for the calls: active = survival T/C of 150% or more; inactive = T/C below 125% in these data. Peptide text beside a SMILES is read from it.

Tested on: P388 leukemia ip, CD2F1 mice, survival T/C
Test: NCI In Vivo Anticancer Drug Screen. Data for tumor model P388 Leukemia (intraperitoneal) in CD2F1 (CDF1) mice
Details: endpoint: median survival time, higher = longer survival
Summary of the method: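 Mice carrying the transplanted tumor received test compound or vehicle. Survival was recorded in each group, and the value is the treated-group measurement divided by that of the vehicle-treated control group.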

[1] = dose: 50.0 mg/kg/injection, schedule: Q01DX009 (ip), vehicle: Klucel (hydroxypropylcellulose) (HPC)
[2] = dose: 100.0 mg/kg/injection, schedule: Q01DX009 (ip), vehicle: Klucel (hydroxypropylcellulose) (HPC)
[3] = dose: 200.0 mg/kg/injection, schedule: Q01DX009 (ip), vehicle: Klucel (hydroxypropylcellulose) (HPC)
[4] = dose: 60.0 mg/kg/injection, schedule: Q01DX005 (ip), vehicle: saline with Tween-80
[5] = dose: 120.0 mg/kg/injection, schedule: Q01DX005 (ip), vehicle: saline with Tween-80
[6] = dose: 240.0 mg/kg/injection, schedule: Q01DX005 (ip), vehicle: saline with Tween-80
[7] = dose: 50.0 mg/kg/injection, schedule: Q01DX005 (ip), vehicle: saline with Tween-80
[8] = dose: 100.0 mg/kg/injection, schedule: Q01DX005 (ip), vehicle: saline with Tween-80
[9] = dose: 200.0 mg/kg/injection, schedule: Q01DX005 (ip), vehicle: saline with Tween-80
[10] = dose: 60.0 mg/kg/injection, schedule: Q01DX005 (ip), vehicle: Klucel (hydroxypropylcellulose) (HPC)
[11] = dose: 120.0 mg/kg/injection, schedule: Q01DX005 (ip), vehicle: Klucel (hydroxypropylcellulose) (HPC)

Measured: T/C

CC(C)C(NC(=O)C(CCCN=C(N)N)NC(=O)C(N)CCCCN)C(N)=O (stereo not drawn) (H-Lys-Arg-Val-NH2; configuration not given here)
inactive: dose: 12.5 mg/kg/injection, schedule: Q01DX009 (ip), vehicle: water 105 % of control | dose: 25.0 mg/kg/injection, schedule: Q01DX009 (ip), vehicle: water 103 % of control | dose: 50.0 mg/kg/injection, schedule: Q01DX009 (ip), vehicle: water 99 % of control | dose: 100.0 mg/kg/injection, schedule: Q01DX009 (ip), vehicle: water 105 % of control | dose: 200.0 mg/kg/injection, schedule: Q01DX009 (ip), vehicle: water 100 % of control

CCOC(=O)Nc1nn(-c2ccc3ccccc3n2)c(=O)[nH]1
inactive: [1] 113 % of control | [2] 109 % of control | [3] 118 % of control

CCCCC/C(=C/C=C/c1ccc(Cl)cc1)CN(C)C
inactive: [1] 111 % of control | [2] 110 % of control

COc1cccc2c1C(=O)c1c(O)c(C(CC(=O)O)OC3CC(N)C(O)C(C)O3)c(CO)c(O)c1C2=O (configuration not stated)
inactive: dose: 100.0 mg/kg/injection, schedule: Q04DX003 (ip), vehicle: water 106 % of control | dose: 200.0 mg/kg/injection, schedule: Q04DX003 (ip), vehicle: water 110 % of control

Nc1nc2nc3c(nc2c(=O)[nH]1)CCCC3
inactive: [4] 101 % of control | [5] 92 % of control | [6] 90 % of control

CCOC(C)OCCCI (configuration not stated)
inactive: [4] 105 % of control | [5] 101 % of control | [6] 105 % of control

N#CC1C(=O)NC(=O)C(C#N)C1c1ccc(Cl)cc1 (configuration not stated)
inactive: [1] 101 % of control | [2] 100 % of control | [3] 101 % of control

CN1CCN(C2=C(Cl)C(=O)c3ccccc3C2=O)CC1
inactive: dose: 1.25 mg/kg/injection, schedule: Q01DX009 (ip), vehicle: saline 100 % of control | dose: 2.5 mg/kg/injection, schedule: Q01DX009 (ip), vehicle: saline 103 % of control | dose: 5.0 mg/kg/injection, schedule: Q01DX009 (ip), vehicle: saline 109 % of control

C=C(C)CN(CCC#N)CC(=C)C
inactive: [7] 102 % of control | [8] 105 % of control | [9] 101 % of control

CC(C)C(NC(=O)c1ccccc1)C(=O)O (configuration not stated)
inactive: [7] 98 % of control | [8] 93 % of control | [9] 88 % of control

CC(C)=NNC(=O)C1CCN1Cc1ccccc1 (configuration not stated)
inactive: dose: 50.0 mg/kg/injection, schedule: Q01DX001 (ip), vehicle: saline 106 % of control | dose: 100.0 mg/kg/injection, schedule: Q01DX001 (ip), vehicle: saline 106 % of control | dose: 200.0 mg/kg/injection, schedule: Q01DX001 (ip), vehicle: saline 111 % of control | dose: 400.0 mg/kg/injection, schedule: Q01DX001 (ip), vehicle: saline 106 % of control

Cc1nc(N)[nH]c(=O)c1CCCC#N
inactive: [10] 105 % of control | [11] 108 % of control

Oc1ccc(N=Nc2ccc3ccc4cccc5ccc2c3c45)c2cccnc12
inactive: dose: 25.0 mg/kg/injection, schedule: Q04DX003 (ip), vehicle: Klucel (hydroxypropylcellulose) (HPC) 101 % of control | dose: 50.0 mg/kg/injection, schedule: Q04DX003 (ip), vehicle: Klucel (hydroxypropylcellulose) (HPC) 101 % of control | dose: 100.0 mg/kg/injection, schedule: Q04DX003 (ip), vehicle: Klucel (hydroxypropylcellulose) (HPC) 100 % of control

O=C(O)CCC(=O)NNc1nc2ccccc2s1
inactive: [10] 102 % of control | [11] 104 % of control | dose: 240.0 mg/kg/injection, schedule: Q01DX005 (ip), vehicle: Klucel (hydroxypropylcellulose) (HPC) 97 % of control

CCOC(=O)ON(C)C(=O)OCC
inactive: [7] 102 % of control | [8] 102 % of control | [9] 107 % of control | dose: 400.0 mg/kg/injection, schedule: Q01DX005 (ip), vehicle: saline with Tween-80 102 % of control

CC(=O)Oc1c2ccccc2cc2ccccc12
inactive: [7] 112 % of control | [8] 96 % of control | [9] 89 % of control

N#Cc1c(N2CCOCC2)c(-c2ccccc2)c(N2CCOCC2)n2c1nc1ccccc12
inactive: [4] 90 % of control | [5] 96 % of control | [6] 87 % of control

O=C1C(C(=Nc2cccc(Br)c2)c2ccccc2)=C(O)c2ccccc21
inactive: dose: 25.0 mg/kg/injection, schedule: Q04DX002 (ip), vehicle: saline with Tween-80 96 % of control | dose: 50.0 mg/kg/injection, schedule: Q04DX002 (ip), vehicle: saline with Tween-80 100 % of control | dose: 100.0 mg/kg/injection, schedule: Q04DX002 (ip), vehicle: saline with Tween-80 99 % of control

O=C1OCCSCCOCCSCCOC(=O)c2cccc1n2
inactive: dose: 100.0 mg/kg/injection, schedule: Q01DX001 (ip), vehicle: Klucel (hydroxypropylcellulose) (HPC) 96 % of control | dose: 200.0 mg/kg/injection, schedule: Q01DX001 (ip), vehicle: Klucel (hydroxypropylcellulose) (HPC) 93 % of control | dose: 400.0 mg/kg/injection, schedule: Q01DX001 (ip), vehicle: Klucel (hydroxypropylcellulose) (HPC) 102 % of control

CC1=C(c2cc3ccccc3c3ccccc23)CCCC1
inactive: dose: 100.0 mg/kg/injection, schedule: Q01DX009 (ip), vehicle: saline with Tween-80 104 % of control | dose: 200.0 mg/kg/injection, schedule: Q01DX009 (ip), vehicle: saline with Tween-80 98 % of control | dose: 400.0 mg/kg/injection, schedule: Q01DX009 (ip), vehicle: saline with Tween-80 100 % of control

O=C(O)C1=C(C(=O)Nc2ccc(NC(=O)C3=C(C(=O)O)CCC3)cc2)CCC1
inactive: dose: 12.5 mg/kg/injection, schedule: Q01DX009 (ip), vehicle: distilled water + Tween-80 93 % of control | dose: 25.0 mg/kg/injection, schedule: Q01DX009 (ip), vehicle: distilled water + Tween-80 98 % of control | dose: 50.0 mg/kg/injection, schedule: Q01DX009 (ip), vehicle: distilled water + Tween-80 97 % of control | dose: 100.0 mg/kg/injection, schedule: Q01DX009 (ip), vehicle: distilled water + Tween-80 105 % of control | dose: 200.0 mg/kg/injection, schedule: Q01DX009 (ip), vehicle: distilled water + Tween-80 115 % of control

OC1OCC2CC3c4cc5c(cc4CCN3CC21)OCO5 (configuration not stated)
inactive: dose: 0.63 mg/kg/injection, schedule: Q01DX009 (ip), vehicle: distilled water + Tween-80 103 % of control | dose: 1.25 mg/kg/injection, schedule: Q01DX009 (ip), vehicle: distilled water + Tween-80 109 % of control | dose: 2.5 mg/kg/injection, schedule: Q01DX009 (ip), vehicle: distilled water + Tween-80 108 % of control | dose: 5.0 mg/kg/injection, schedule: Q01DX009 (ip), vehicle: distilled water + Tween-80 100 % of control | dose: 10.0 mg/kg/injection, schedule: Q01DX009 (ip), vehicle: distilled water + Tween-80 103 % of control | dose: 20.0 mg/kg/injection, schedule: Q01DX009 (ip), vehicle: distilled water + Tween-80 103 % of control

CCc1nc(N)nc(N)c1-c1ccc2nn(-c3ccccc3)[n+]([O-])c2c1
inactive: dose: 50.0 mg/kg/injection, schedule: Q01DX005 (ip), vehicle: Klucel (hydroxypropylcellulose) (HPC) 108 % of control | dose: 200.0 mg/kg/injection, schedule: Q01DX005 (ip), vehicle: Klucel (hydroxypropylcellulose) (HPC) 87 % of control

COC(=O)/C1=C/CCC2=CC(CCC1)OC2=O (configuration not stated)
inactive: dose: 35.75 mg/kg/injection, schedule: Q01DX005 (ip), vehicle: Klucel (hydroxypropylcellulose) (HPC) 103 % of control | dose: 71.5 mg/kg/injection, schedule: Q01DX005 (ip), vehicle: Klucel (hydroxypropylcellulose) (HPC) 99 % of control | dose: 143.0 mg/kg/injection, schedule: Q01DX005 (ip), vehicle: Klucel (hydroxypropylcellulose) (HPC) 97 % of control
